Data published in patent publication US6849664B2, “Process for disposing biocide-containing cooling water” (priority 2001, dated 2005).
Read-outs that look alike come from different tables or passages of the source.

Experiments:
[1] = system: bacterial inoculum; conditions: for neutralizing 10 ppm of glutaraldehyde: two moles of nitrogen-containing compound to glutaraldehyde
Description: A series of different nitrogen-containing compounds were evaluated as materials to neutralize glutaraldehyde. For these experiments, 10:1 ratio of minimal media to n-C16 were prepared, mixed with 10 ppm of glutaraldehyde (G) and evaluated in 250 ml flasks.
Two moles of each of the nitrogen-containing compound to glutaraldehyde were added to the flasks. Then 10 μl of the bacterial inoculum was added to each flask.
Control samples were also run with the nitrogen-containing compound and without the glutaraldehyde. These control samples permitted an assessment of the toxicity of the nitrogen-containing compound.

[2] = system: Larval Sheepshead Minnow (Cyprinodon variegatus); conditions: in vivo, 96 h
Description: […]. EPA/600/4-90/027F Washington, D.C.) conducted at Pacific Eco-Risk Laboratories, Martinez, Calif.
LOEC is the Lowest Observable Effect Concentration and is defined as the minimum concentration where mortality is observed for the test species. […] LC-50, the concentration that will cause mortality of 50% of the organisms tested within 96 h, is a calculated value based on all observations.

[3] = system: bacterial inoculum; experiment: Neutralization of biocides with MEA, microbial growth in minimal media / Fischer-Tropsch diesel fuel; format: cell-based
Description: Growth Media: A standard minimal media containing only inorganic nutrients required for bacterial growth was used. The medium used to supply inorganic micronutrients to the growing culture of alkane degrading organisms consists of 0.1 g/L MgSO4.7H2O, 0.5 g/L NaNO3, 0.02 mM FeSO4 and 0.63 g/L K2HPO4 and 0.19 g/L KH2PO4 to achieve a pH of 7 to 7.3.
Test Conditions: 90 ml of media and 10 ml of the product to be tested (n-C16) were added to 250 ml flasks. […] After inoculation, the flasks were placed on a shaker-table (135 rpm) at room temperature in contact with air and observed daily.
In all experiments, a 10:1 ratio of minimal media to Fischer-Tropsch diesel fuel were prepared and evaluated in 250 ml flasks.

[4] = system: bacteria; experiment: Neutralization of glutaraldehyde with H2O2 and NH4Cl, microbial growth test; format: cell-based
Description: […]. In this experiment, minimal medium, containing 1, 10 or 100 ppm of glutaraldehyde, were mixed with a five times molar excess of H2O2 or NH4Cl. Hydrocarbonaceous product and bacteria were then added to the mixture. While microbial growth was observed after 5 days in control samples containing no glutaraldehyde, no growth was observed after 14 days in samples containing glutaraldehyde and H2O2 or NH4Cl. […].

[5] = 10 ppm glutaraldehyde with two moles of the nitrogen-containing compound to glutaraldehyde, time 0 days
[6] = 10 ppm glutaraldehyde with two moles of the nitrogen-containing compound to glutaraldehyde, time 1 days
[7] = 10 ppm glutaraldehyde with two moles of the nitrogen-containing compound to glutaraldehyde, time 2 days
[8] = 10 ppm glutaraldehyde with two moles of the nitrogen-containing compound to glutaraldehyde, time 6 days
[9] = 10 ppm glutaraldehyde with two moles of the nitrogen-containing compound to glutaraldehyde, time 7 days
[10] = 10 ppm glutaraldehyde with two moles of the nitrogen-containing compound to glutaraldehyde, time 9 days
[11] = 10 ppm glutaraldehyde with two moles of the nitrogen-containing compound to glutaraldehyde, time 13 days
[12] = 10 ppm glutaraldehyde with two moles of the nitrogen-containing compound to glutaraldehyde, time 20 days
[13] = control: nitrogen-containing compound without the glutaraldehyde, time 0 days
[14] = control: nitrogen-containing compound without the glutaraldehyde, time 1 days
[15] = control: nitrogen-containing compound without the glutaraldehyde, time 2 days
[16] = control: nitrogen-containing compound without the glutaraldehyde, time 6 days
[17] = control: nitrogen-containing compound without the glutaraldehyde, time 7 days
[18] = control: nitrogen-containing compound without the glutaraldehyde, time 9 days
[19] = control: nitrogen-containing compound without the glutaraldehyde, time 13 days
[20] = control: nitrogen-containing compound without the glutaraldehyde, time 20 days

OCCNCCO [DEA, Diethanolamine]
not excessively toxic: toxicity of the nitrogen-containing compound to microbial growth [1]
effective: neutralizing 10 ppm of glutaraldehyde [1]
−: Growth / No Growth [1, 5] | Growth / No Growth [1, 13] | Growth / No Growth [1, 14] | Growth / No Growth [1, 15] | Growth / No Growth [1, 20]
+: Growth / No Growth [1, 6] | Growth / No Growth [1, 7] | Growth / No Growth [1, 8] | Growth / No Growth [1, 9] | Growth / No Growth [1, 10] | Growth / No Growth [1, 11] | Growth / No Growth [1, 12] | Growth / No Growth [1, 16] | Growth / No Growth [1, 17] | Growth / No Growth [1, 18] | Growth / No Growth [1, 19]

O=CCCCC=O [Glutaraldehyde, glutaraldehyde]
−: Growth / No Growth ([3]; 1 ppm G, time 0 days) | Growth / No Growth ([3]; 1 ppm G, time 1 days) | Growth / No Growth ([3]; 1 ppm G, time 2 days) | Growth / No Growth ([3]; 1 ppm G, time 3 days) | Growth / No Growth ([3]; 1 ppm G, time 7 days) | Growth / No Growth ([3]; 10 ppm G, time 0 days) | Growth / No Growth ([3]; 10 ppm G, time 1 days) | Growth / No Growth ([3]; 10 ppm G, time 2 days) | Growth / No Growth ([3]; 10 ppm G, time 3 days) | Growth / No Growth ([3]; 10 ppm G, time 7 days) | Growth / No Growth ([3]; 10 ppm G, time 9 days) | Growth / No Growth ([3]; 10 ppm G, time 14 days) | Growth / No Growth ([3]; 100 ppm G, time 0 days) | Growth / No Growth ([3]; 100 ppm G, time 1 days) | Growth / No Growth ([3]; 100 ppm G, time 2 days) | Growth / No Growth ([3]; 100 ppm G, time 3 days) | Growth / No Growth ([3]; 100 ppm G, time 7 days) | Growth / No Growth ([3]; 100 ppm G, time 9 days) | Growth / No Growth ([3]; 100 ppm G, time 14 days)
13 mg/L: NOEC [2]
25 mg/L: LOEC [2]
+: Growth / No Growth ([3]; 1 ppm G, time 9 days) | Growth / No Growth ([3]; 1 ppm G, time 14 days)

OO [H2O2]
no growth: microbial growth [4]

NCCO [MEA, monoethanolamine]
1000 mg/L: NOEC [2]
not excessively toxic: toxicity of the nitrogen-containing compound to microbial growth [1]
1700 mg/L: LOEC [2]
effective: neutralizing 10 ppm of glutaraldehyde [1]
−: Growth / No Growth [1, 5] | Growth / No Growth [1, 6] | Growth / No Growth [1, 7] | Growth / No Growth [1, 13] | Growth / No Growth [1, 14] | Growth / No Growth [1, 15] | Growth / No Growth [1, 16]
+: Growth / No Growth [1, 8] | Growth / No Growth [1, 9] | Growth / No Growth [1, 10] | Growth / No Growth [1, 11] | Growth / No Growth [1, 12] | Growth / No Growth [1, 17] | Growth / No Growth [1, 18] | Growth / No Growth [1, 19] | Growth / No Growth [1, 20]

Cl.N [NH4Cl]
no growth: microbial growth [4]

Nc1ccccc1 [aniline, Aniline]
−: Growth / No Growth [1, 5] | Growth / No Growth [1, 6] | Growth / No Growth [1, 7] | Growth / No Growth [1, 8] | Growth / No Growth [1, 9] | Growth / No Growth [1, 10] | Growth / No Growth [1, 11] | Growth / No Growth [1, 12] | Growth / No Growth [1, 13] | Growth / No Growth [1, 14] | Growth / No Growth [1, 15] | Growth / No Growth [1, 16] | Growth / No Growth [1, 17] | Growth / No Growth [1, 18] | Growth / No Growth [1, 19] | Growth / No Growth [1, 20]
excessively toxic: toxicity of the nitrogen-containing compound to microbial growth [1]

CCNCC [diethylamine, Diethylamine]
effective: neutralizing 10 ppm of glutaraldehyde [1]
+: Growth / No Growth [1, 8] | Growth / No Growth [1, 9] | Growth / No Growth [1, 10] | Growth / No Growth [1, 11] | Growth / No Growth [1, 12] | Growth / No Growth [1, 16] | Growth / No Growth [1, 17] | Growth / No Growth [1, 18] | Growth / No Growth [1, 19] | Growth / No Growth [1, 20]
not excessively toxic: toxicity of the nitrogen-containing compound to microbial growth [1]
−: Growth / No Growth [1, 5] | Growth / No Growth [1, 6] | Growth / No Growth [1, 7] | Growth / No Growth [1, 13] | Growth / No Growth [1, 14] | Growth / No Growth [1, 15]
